Measurements published in patent US20230285477A1, “MICROBIAL THERAPY” (BEO THERAPEUTICS, priority 2020, published 2023).

Columns and labels:
patients = patients treated with allopurinol; cited from earlier work
[1] = system: hyperuricemia mouse model; test: Hyperuricemia mouse model (high-purine diet + potassium oxonate), serum uric acid; type: in vivo, mice; details: FIG. 9; normal range 40-65
Text: 6-10 weeks old mice are randomly divided into groups of 10 mice as follows, using 1.0×10^8-1010 CFU for the test product: • 1) Control group • 2) Allopurinol treatment group • 3) Microbial treatment group 1: Test product is bacterial strain BEO #104 • 4) Microbial treatment group 2: Test product is bacterial strain BEO #110 • 5) Microbial treatment group 4: Test product is bacterial strain BEO #227 • 6) Microbial treatment group 6: Test product is mix of bacterial strains BEO #110+BEO #227
The control group is fed a normal diet (laboratory chow and water ad libitum) and treated with saline (0.5 ml, sodium chloride solution in water) by intragastric administration once a day. The other groups are fed a high-purine diet (laboratory high-purine chow and water ad libitum) and administered an intraperitoneal injection of potassium oxonate 300 mg/kg once a day. The microbial treatment groups are treated daily with approximately 1.0×10^9 CFU/day by intragastric administration. The strains tested all have QPS status and they are produced and formulated under laboratory conditions.
Mice are weighed day −1 for determination of mean weight of animals in the experiment and for composition of groups. […]
Serum is collected once weekly and at the end of experiment. […] Serum is analysed for uric acid concentration.

uricase = test: Bacterial uricase activity (Amplex Red Uric Acid/Uricase Assay Kit); type: biochemical; details: mean average of all strains of the species; 2% uric acid in medium; fluorescence after 30 min; positive control 20 mM H2O2
Description: Bacterial strains were evaluated for uricase catalytic activity. Prior to the assay, 1/100th volume from the glycerol stocks (example 1) was added to the microtiter plate containing appropriate medium (see overview). Culturing conditions (time, temperature, medium, aerobic or anaerobic) depend on species and can be found in Table 1. Uric acid was dissolved in medium to 2% and the medium was filter sterilized (therefore uric acid was immediately present in the medium upon culturing). Growth of the bacterial strains was assessed by visual examination (the level of viscosity of the medium) before harvesting for fluorescence measurement. […]
The enzyme assay, Amplex® Red Uric Acid/Uricase Assay Kit; Catalog No. A22181; Molecular Probes, was used according to the instructions of the manufacturer. Fluorescence readouts were determined after 30 min using excitation at 530±12.5 nm and fluorescence detection at 590±17.5 nm. […]
The activity of the strains listed in Table 1 was determined, as described in Examples 2 and 3, as percentage of maximal fluorescence from positive controls (Bifidobacterium breve strain ATCC 15701 was used as positive control for the screems according to Example 2 and 20 mM H2O2 solution was used as positive control for the screems according to Example 3). […]

Row | Molecule | patients treated reaching the treatment target (patients) | serum urate concentration over a 23-hour treatment cycle [1] | Uricase activity: Inhibitory activity (uricase)
1 | Oc1ncnc2[nH]ncc12 [allopurinol] | 30-40% | large fluctuations in serum urate outside the normal range | 
2 | Lactobacillus plantarum |  |  | low (low (5-30% of positive control))
